Assay results as given in the supplement of paper PMC10307832.

Tests used:
Assay in all cases: relative viability (nuclei count vs DMSO), 5 days (fraction); higher = more cells survive
Serdemetan + Alpelisib = compound: c1ccc2c(CCNc3ccc(Nc4ccncc4)cc3)c[nH]c2c1 [Serdemetan] + Cc1nc(NC(=O)N2CCC[C@H]2C(N)=O)sc1-c1ccnc(C(C)(C)C(F)(F)F)c1 [Alpelisib] (partner 2 µM)
Procedure, shortened: (§1)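 Each reported value is a median over duplicate plates. It expresses relative viability: treated-well nuclei count divided by vehicle-well nuclei count. Lung cancer cell lines in 1536-well plates were dosed by pin tool a day after seeding, alone with one drug or with a fixed anchor-drug dose plus five library-drug doses (not always all listed) in √10 steps, and nuclei were counted after 5 days.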

Selisistat + Lapatinib = compound: C1CC(C2=C(C1)C3=C(N2)C=CC(=C3)Cl)C(=O)N [Selisistat] + CS(=O)(=O)CCNCc1ccc(-c2ccc3ncnc(Nc4ccc(OCc5cccc(F)c5)c(Cl)c4)c3c2)o1 [Lapatinib] (partner 2 µM)
Procedure, shortened: as §1

Serdemetan + Tozasertib = compound: c1ccc2c(CCNc3ccc(Nc4ccncc4)cc3)c[nH]c2c1 [Serdemetan] + Cc1cc(Nc2cc(N3CCN(C)CC3)nc(Sc3ccc(NC(=O)C4CC4)cc3)n2)n[nH]1 [Tozasertib] (partner 0.1 µM)
Procedure, shortened: as §1

Serdemetan + Olaparib = compound: c1ccc2c(CCNc3ccc(Nc4ccncc4)cc3)c[nH]c2c1 [Serdemetan] + O=C(c1cc(Cc2n[nH]c(=O)c3ccccc23)ccc1F)N1CCN(C(=O)C2CC2)CC1 [Olaparib] (partner 8 µM)
Procedure, shortened: as §1

Cell Line | relative viability (Serdemetan + Alpelisib; first compound 0.04 µM) | relative viability (Serdemetan + Alpelisib; first compound 0.1265 µM) | relative viability (Serdemetan + Alpelisib; first compound 1.265 µM) | relative viability (Serdemetan + Alpelisib; first compound 4 µM) | relative viability (Selisistat + Lapatinib; first compound 0.4 µM) | relative viability (Selisistat + Lapatinib; first compound 1.265 µM) | relative viability (Selisistat + Lapatinib; first compound 4 µM) | relative viability (Selisistat + Lapatinib; first compound 12.65 µM) | relative viability (Selisistat + Lapatinib; first compound 40 µM) | relative viability (Serdemetan + Tozasertib; first compound 0.04 µM) | relative viability (Serdemetan + Tozasertib; first compound 0.1265 µM) | relative viability (Serdemetan + Tozasertib; first compound 1.265 µM) | relative viability (Serdemetan + Tozasertib; first compound 4 µM) | relative viability (Serdemetan + Olaparib; first compound 0.04 µM) | relative viability (Serdemetan + Olaparib; first compound 0.1265 µM) | relative viability (Serdemetan + Olaparib; first compound 1.265 µM) | relative viability (Serdemetan + Olaparib; first compound 4 µM) | relative viability (Serdemetan + Alpelisib; first compound 0.4 µM) | relative viability (Serdemetan + Tozasertib; first compound 0.4 µM) | relative viability (Serdemetan + Olaparib; first compound 0.4 µM)
HCC-827 | 0.924 | 0.934 | 0.723 | 0.6 | 0.192 | 0.189 | 0.203 | 0.182 | 0.186 | 0.406 | 0.393 | 0.297 | 0.308 | 0.631 | 0.594 | 0.509 | 0.306 |  |  | 
HOP-62 | 0.966 | 0.914 | 0.76 | 0.841 | 0.974 | 1.03 | 0.96 | 0.884 | 1.14 | 0.421 | 0.323 | 0.328 | 0.245 | 0.482 | 0.394 |  | 0.263 | 0.947 | 0.322 | 0.489
LC-2-ad | 0.987 | 0.804 |  | 0.806 | 1.01 | 0.968 | 0.803 | 0.833 | 1.04 | 0.397 | 0.487 | 0.461 | 0.385 | 0.703 | 0.629 | 0.536 | 0.511 | 0.803 | 0.459 | 0.63
LCLC-97TM1 | 0.258 | 0.203 | 0.225 | 0.202 | 0.779 | 1.12 | 0.86 | 0.928 | 1.32 | 0.256 | 0.202 |  | 0.169 | 0.349 | 0.358 | 0.174 | 0.237 | 0.241 | 0.235 | 0.403
LK-2 | 1.1 | 1.28 | 1.06 | 0.652 | 0.858 | 0.749 | 0.701 | 0.935 | 1.05 | 0.171 | 0.176 | 0.207 | 0.168 | 0.715 | 0.645 | 0.444 | 0.57 | 1.25 | 0.194 | 0.782
LOU-NH91 | 0.741 | 0.677 | 0.761 | 0.679 | 0.753 | 0.741 | 0.741 | 0.762 | 0.758 | 0.692 | 0.654 | 0.509 | 0.684 | 0.897 | 0.889 |  | 0.877 |  | 0.442 | 
LU99A | 0.516 | 0.576 | 0.175 | 0.17 | 1.06 | 0.913 | 1.06 | 0.914 | 0.962 | 0.321 | 0.297 | 0.183 | 0.185 | 0.245 | 0.185 | 0.124 | 0.136 | 0.342 | 0.265 | 0.17
LXF-289 | 1.02 | 1.01 | 0.844 | 0.844 | 0.913 | 0.949 | 0.926 | 0.864 | 0.921 | 0.213 | 0.21 | 0.164 | 0.118 | 1.1 | 1.11 | 0.794 | 0.388 | 0.937 | 0.171 | 0.939
NCI-H23 | 0.674 | 0.682 | 0.538 | 0.596 | 1.16 | 1.06 |  | 1.24 | 1 | 0.436 | 0.413 | 0.305 | 0.265 | 0.314 | 0.364 |  | 0.231 | 0.577 | 0.358 | 0.298
NCI-H322M | 0.853 | 0.875 | 0.755 | 0.75 | 0.595 | 0.562 |  | 0.623 | 0.561 | 0.447 | 0.457 | 0.35 | 0.437 | 0.667 | 0.757 | 0.469 | 0.655 | 0.838 | 0.484 | 0.729
NCI-H358 | 0.86 | 0.946 | 0.679 | 0.734 | 0.492 | 0.443 |  | 0.397 | 0.373 | 0.0807 | 0.105 | 0.102 | 0.0954 | 0.582 | 0.507 | 0.595 | 0.464 | 0.906 | 0.111 | 0.626
NCI-H460 | 0.506 | 0.415 | 0.171 | 0.0988 | 0.909 | 0.952 |  | 0.903 | 0.911 | 0.647 | 0.403 | 0.402 | 0.12 | 0.342 | 0.344 | 0.182 | 0.148 | 0.333 | 0.399 | 0.349
NCI-H520 | 0.729 | 0.807 | 0.726 | 0.786 | 0.811 | 0.898 | 0.814 | 0.751 | 0.766 | 0.42 | 0.413 | 0.329 | 0.313 | 0.335 | 0.347 | 0.199 | 0.26 | 1.09 | 0.441 | 0.27
NCI-H596 | 0.477 | 0.498 | 0.369 | 0.298 | 1.16 | 1.16 | 1.03 | 1.14 | 1.12 | 0.825 | 0.787 | 0.513 | 0.34 | 0.694 | 0.657 | 0.532 | 0.475 | 0.481 | 0.774 | 0.517
NCI-H647 | 1.16 | 1.2 | 0.762 | 0.671 | 1.19 | 1.07 |  | 0.993 | 1.17 | 0.355 | 0.291 | 0.287 | 0.223 | 0.51 | 0.495 | 0.27 | 0.165 | 1.05 | 0.226 | 0.534
NCI-H650 | 0.965 | 1.15 | 0.92 | 0.67 | 1.09 |  | 0.916 | 0.941 | 1.11 | 0.661 | 0.679 | 0.642 | 0.581 | 0.379 | 0.362 | 0.271 | 0.285 | 1.11 | 0.803 | 0.365
NCI-H661 | 0.759 | 0.429 | 0.197 | 0.428 | 0.515 | 0.469 | 0.502 | 0.396 | 0.535 | 0.362 | 0.381 | 0.308 | 0.352 | 0.711 | 0.648 | 0.549 | 0.558 | 0.676 | 0.385 | 0.634
NCI-H727 | 0.597 | 0.522 | 0.487 | 0.418 | 0.626 | 0.841 |  |  | 0.725 | 0.695 | 0.542 | 0.585 | 0.518 | 0.598 | 0.725 | 0.484 | 0.726 | 0.593 | 0.509 | 0.679
NCI-H838 | 0.994 | 0.953 | 0.962 | 1.13 | 1.09 | 0.965 | 0.627 | 0.966 | 0.958 | 0.282 | 0.246 | 0.231 | 0.232 | 0.739 | 0.759 | 0.669 | 0.874 | 0.995 | 0.234 | 0.671
NCI-H1355 | 0.952 | 0.786 | 0.875 | 0.774 | 0.923 | 1 |  | 1.02 | 1.04 | 0.489 | 0.508 | 0.381 | 0.385 | 0.672 | 0.709 | 0.471 | 0.566 | 0.752 | 0.443 | 0.648
NCI-H1395 | 0.863 | 0.903 | 0.912 | 0.564 | 1.09 | 0.973 | 1 | 0.91 | 0.883 | 0.736 | 0.742 | 0.751 | 0.513 | 0.445 | 0.442 | 0.478 | 0.399 | 1.12 | 0.838 | 0.443
NCI-H1437 | 0.936 | 1.01 | 0.807 | 0.802 | 0.801 | 0.758 | 0.341 | 0.71 | 0.776 | 0.375 | 0.399 | 0.331 | 0.285 | 0.661 | 0.612 | 0.677 | 0.537 | 0.896 | 0.383 | 0.62
NCI-H1651 | 0.889 | 0.78 | 0.371 | 0.213 | 0.785 | 0.769 | 0.749 | 0.789 | 0.939 | 0.696 | 0.613 | 0.343 | 0.292 | 0.179 | 0.165 | 0.131 | 0.141 | 0.65 | 0.338 | 0.159
NCI-H1666 | 1.22 | 1 | 0.794 | 0.807 | 0.751 | 0.574 | 0.437 | 0.589 | 0.472 | 0.569 | 0.588 | 0.553 | 0.547 | 0.735 | 0.701 |  | 0.678 | 0.891 | 0.588 | 0.668
NCI-H1734 | 0.61 |  | 0.122 | 0.178 | 1.03 | 1.04 | 1.17 | 1.02 | 1.16 | 0.29 | 0.235 | 0.142 | 0.134 | 0.327 | 0.183 | 0.114 | 0.149 | 0.259 | 0.209 | 0.171
NCI-H1755 | 0.893 | 0.898 | 0.499 | 0.456 | 1.12 | 1.15 | 1.01 | 1.01 | 1.13 | 0.568 | 0.625 | 0.435 | 0.354 | 0.867 | 0.769 | 0.493 | 0.448 | 0.815 | 0.55 | 0.648
NCI-H1793 | 0.704 | 0.738 | 0.53 | 0.347 | 0.793 | 0.636 |  | 0.816 | 0.816 | 0.332 | 0.298 | 0.255 | 0.186 | 0.814 | 0.73 | 0.316 | 0.285 | 0.754 | 0.268 | 0.547
